One block for each compound: values may come before it.
Experiments:
[1] = test system: dimethylhydrazine-induced colonic ACF and colonic mucosal cell growth; assay: Suppressive effect on the formation of dimethylhydrazine-induced colonic ACF and cancer cell growth; type: in vivo, male ICR mice; conditions: for number of colonic ACF: mean ± standard error, control 30.7 ± 3.3
[2] = literature statement; cited from earlier work
[3] = test system: lipid peroxide production in homogenate of the brain; assay: Examination of antioxidative effect (thiobarbituric acid reaction product, lipid peroxide, in brain homogenate); type: biochemical, Wistar rat
Protocol: The absorbance of a thiobarbituric acid reaction product (lipid peroxide) generated 1 hr after the incubation was measured.

[4] = test system: azoxymethane-induced aberrant crypt foci in colon; assay: Suppressive effect on the formation of azoxymethane-induced aberrant crypt foci in colon; type: in vivo, male ICR mice; conditions: for number of colonic ACF / body weight: mean ± standard error; for number of colonic ACF: control 10.3 ± 1.7; for body weight: mixed diet for 5 weeks, azoxymethane-treated mice
[5] = Y-700 10 and 20 mg/kg mixed diet, 10 weeks
[6] = Y-700 mixed diet 10 and 20 mg/kg diet
[7] = Y-700 5-20 mg/kg mixed diet, 5 weeks

feed intake [4, 7]: No change
SMILES: CC(C)(C)COc1ccc(-n2cc(C(=O)O)cn2)cc1C#N [Y-700, 1-(3-cyano-4-neopentyloxyphenyl)pyrazole-4-carboxylic acid]
number of colonic ACF ([1]; Y-700 10 mg/kg diet, 10 weeks): 20.7 ± 2.0 n/mouse | number of colonic ACF ([1]; Y-700 20 mg/kg diet, 10 weeks): 22.9 ± 1.4 n/mouse | body weight change attributable to Y-700 administration [1, 5]: nor was observed body weight change | feed intake [1, 5]: No change | cell growth rate of the surrounding areas, change in words [1, 6]: significant decreases | number of colonic ACF, change in words [1, 6]: significant decreases | radical removing (scavenging) effect [2]: free of radical scavenging effect | change in production amount of lipid peroxide attributable to addition of Y-700 ([3]; 0.5-20 μg/ml): No change | antioxidative effect ([3]; conclusion in words): no antioxidative effect | number of colonic ACF ([4]; Y-700 5 mg/kg diet, 5 weeks): 7.0 ± 1.3 n/mice | body weight ([4]; Y-700 5 mg/kg diet): 40.4 ± 1.2 g | number of colonic ACF ([4]; Y-700 10 mg/kg diet, 5 weeks): 7.0 ± 0.7 n/mice | body weight ([4]; Y-700 10 mg/kg diet): 39.9 ± 1.4 g | number of colonic ACF ([4]; Y-700 15 mg/kg diet, 5 weeks): 6.5 ± 0.6 n/mice | body weight ([4]; Y-700 15 mg/kg diet): 40.3 ± 0.9 g | number of colonic ACF ([4]; Y-700 20 mg/kg diet, 5 weeks): 5.5 ± 0.7 n/mice | body weight ([4]; Y-700 20 mg/kg diet): 39.9 ± 1.0 g | body weight change attributable to Y-700 administration [4, 7]: nor was observed body weight change | number of colonic ACF, trend ([4]; Y-700 mixed diet 5-20 mg/kg diet): dose-dependent decreases | effect on the increase in the number of colonic ACF induced by azoxymethane ([4]; conclusion in words): suppressive effect

SMILES: Oc1ncnc2[nH]ncc12 [allopurinol, reference compound]
radical removing (scavenging) effect [2]: shows a radical removing (scavenging) effect
